Experimental findings from patent US20050201938A1, “Method for selectively inhibiting ghrelin action” (priority 2000, published 2005) are described below.

Test [1] in a line: In-vivo analysis of body composition by dual-energy X-ray absorptiometry (DXA). Also noted: species or system mice. How it is done:
Body composition was measured on day 14 of the treatment period by DXA using a Norland p-DEXA® (Norland, USA). The system provides a non-invasive method for quantification of whole body composition and is based on the differential attenuation of high and low energy x-rays by the tissues in the scan area. Soft tissues attenuate the energy beam less than bone; of the soft tissue mass, fat tissue attenuates the beam less than lean tissue. Fat mass consists primarily of adipose tissue, but lean mass includes organs, tendons, cartilage, blood and body water in addition to skeletal muscle. In the present study, fat mass, lean mass and bone mineral content (bone mass) were measured and reported. Mice were anesthetized with inhalation of isoflorane and placed on the instrument platform in ventral position. Measurements were performed at a speed of 10 mm/min and a resolution of 0.5×0.5 mm. Quality controls using phantom ID2232 and Calibration Standard 82315 (Norland) were performed before starting measurements.
(§1) Mice were treated with GHRP-2 for 18 days. […] This was partially a consequence of decreased (p=0.02) lipid utilization measured by indirect calorimetry. Hypothalamic mRNA levels (measured by RT-PCR) of neuropeptide Y (NPY), agouti-related-protein (AGRP), pro-opio-melanocortin (POMC) and […] (MCH) were not changed. Since GHRP-6 increases c-fos expression in NPY-neurons (Vernon, R. G.; J Endocrinol 150, 129-40 (1996)) and because these neurons also release AGRP, a natural melanocyte stimulating hormone antagonist, GHRP-2 treatment was repeated in NPY-knockout mice (NPY-/−). […] However, an increase in AGRP mRNA levels (p=0.008, n=24 in GHRP-2 treated (NPY-/−)) was observed. Plasma levels of IGF-I, insulin, glucose and corticosterone were not changed. […] 200 μg of rat ghrelin was injected subcutaneously into wild-type mice, GHRP-2 or vehicle (phosphate buffered saline). After 5 days of treatment, body weight increased (p=0.00) 12% in both ghrelin- and GHRP-2-treated mice but not in controls. This weight gain was a consequence of decreased energy expenditure and decreased lipid utilization.

Test [2] can be described thus: Indirect calorimetry (energy expenditure, fuel utilization). Format: in vivo, mice. The protocol:
Twenty-four hour energy expenditure (EE) and respiratory quotient (RQ) were measured by indirect calorimetry using an open circuit calorimetry system (Oxymax, Columbus Instruments International Corporation; Columbus, Ohio). The instrument was calibrated before each experiment using standard gas mixtures containing known concentrations of CO2, N2 and O2. After the first daily injection, animals were placed in calorimeter chambers containing food and water in a room maintained under identical conditions as those described above throughout the treatment period. Gas sampled from each of 10 chambers was first dried by a condenser. The volume of oxygen consumed (VO2) and carbon dioxide produced (VCO2) in an hour was measured using a paramagnetic oxygen sensor and a spectrophotometric CO2 sensor. Such measurements were obtained hourly for 24 hours. RQ is the ratio of VCO2 to VO2. EE was calculated as the product of calorific value of oxygen (CV) and VO2 per kilogram (kg) of body weight; where CV=3.815+1.232*RQ (Elia, M. & Livesey, G, World Rev Nutr Diet 70, 68-131 (1992)). Total calories expended were calculated to determine daily fuel utilization. To calculate proportion of protein, fat and carbohydrate that is utilized during that 24-hour period, we used Flatt's proposal and assumed that protein utilization was equivalent to protein intake for adult stable animals (Flatt, J. P., J. Nutr Biochem 2, 193-202 (1991)). Using formulae and constants derived by Elia and Livesey (Elia, M. & Livesey, G., World Rev Nutr Diet, 70, 68-131 (1992)), we calculated the percent of daily fuel utilization derived from carbohydrate and fat. Daily caloric intake was calculated as (mass of daily food intake in g)*(physiological fuel value of the diet in kcal/g). Locomotor activity was measured by counting the number of times an animal breaks a new light beam during each of 24 hours in the calorimeter.
as §1

Test [3] in a line: Plasma levels of IGF-I, insulin, glucose and corticosterone after GHRP-2 treatment. The class given is in vivo. The settings on record: GHRP-2 treated mice. How it is done:
as §1

Test [4] has as its system hypothalamic mRNA of NPY, AGRP, POMC, MCH. Put plainly: Hypothalamic mRNA levels measured by RT-PCR, wild-type mice. Format: in vivo. The conditions noted are these: GHRP-2 treatment. The protocol: as §1
Test [5] relates to NPY-knockout mice (NPY-/-). Kind of test: GHRP-2 treatment repeated in NPY-knockout mice. The class given is in vivo. The protocol: (§2) Wild-type mice (129SV strain) and NPY-knockout mice were obtained from Taconic Farms®. Eight-week old dwarf rats were purchased at Harlan UK. Animals were housed individually in a temperature controlled environment (25° C.) with a 12-hour light and 12-hour dark (18.00−06.00) photoperiod. All mice had ad libitum access to pelleted mouse food (5008 PMI® Nutrition International) and tap water. Mice were between 9 and 13 weeks of age and were injected daily between 17.00 and 18.00 with 0.1 ml of phosphate buffered saline (PBS) containing 0 or 8 mg/kg/d ghrelin over 13 days. Food intake and body weights were measured daily at 08.00 h. All animal experiments were conducted in accordance with the principles and procedures outlined in the National Institute of Health (NIH) Guide for the Care and Use of Laboratory Animals.
Mice were treated with GHRP-2 for 18 days. […] This was partially a consequence of decreased (p=0.02) lipid utilization measured by indirect calorimetry. Hypothalamic mRNA levels (measured by RT-PCR) of neuropeptide Y (NPY), agouti-related-protein (AGRP), pro-opio-melanocortin (POMC) and […] (MCH) were not changed. […]

Test [6] in a line: In vivo administration to wild-type mice: food intake and body weight. The settings on record: for body weight increase: wild-type mice, subcutaneous injection, after 5 days of treatment, not in controls. The protocol: as §2, §1
Setting [7] is: wild-type mice, 5 days of treatment.
The mark [8] stands for this setting: mice treated with GHRP-2 for 18 days, n=42, p=0.001.

In the case of GHRP-2, in test [1] (mice, 18 days treatment, DXA, p=0.002), the fat mass result is given as “significant increase”. For the same substance, the bone mass entry in test [1] (mice, 18 days treatment, DXA, p=0.017) is recorded as “significant increase”. The lean mass entry in test [1] (mice, 18 days treatment, DXA, p=0.63) is reported as “no change”. In test [2] (mice, 18 days treatment, indirect calorimetry, p=0.02), the lipid utilization result was “decreased”. In test [2] (setting [7]), the energy expenditure result was “decreased” and the lipid utilization entry is reported as “decreased”. For the same substance, in test [3], the “plasma level of IGF-I” value was “not changed”, the “plasma level of corticosterone” value is “not changed”, the “plasma level of glucose” value was “not changed” and the “plasma level of insulin” value is listed as “not changed”. Besides, in test [4], the “hypothalamic mRNA level of agouti-related-protein (AGRP)” value is on record as “not changed”, the “hypothalamic mRNA level of melanocyte-concentrating hormone (MCH)” value is “not changed”, the “hypothalamic mRNA level of neuropeptide Y (NPY)” value is reported as “not changed” and the “hypothalamic mRNA level of pro-opio-melanocortin (POMC)” value is “not changed”. Besides, the energy balance entry in test [5] is reported as “positive energy balance”. Besides, the “AGRP mRNA levels” value in test [5] (p=0.008, n=24) is listed as “increase”. In test [6] (setting [8]), the body weight result is given as “dose-dependent increase” and the food intake result is “dose-dependent increase”. In test [6], this substance yielded a body weight increase of 12%.
As for ghrelin, the “effect of administration in an animal model (fat deposition)” value in test [1] (animal model, inventors' work, Nature 407: 908-913 (2000)) was “predominantly lead to fat deposition”. In test [2] (setting [7]), the energy expenditure entry is recorded as “decreased” and the lipid utilization result was “decreased”. The same substance displayed a body weight increase in test [6] of 12%.
